According to patent publication US20240374763A1, “DIAGNOSIS AND MONITORING USING EXTRADOMAIN-B FIBRONECTIN TARGETED PROBES” (Case Western Reserve University, priority 2020, published 2024):
No end group written: not given here.

What was measured:
CAL27 tumors = experiment: MRMI of OSCC flank xenografts, CAL27; assay type: in vivo, mice; conditions: gadoteridol 0.10 mmol/kg
Method: (§1) Animal experiments were performed under an animal protocol approved by the Institutional Animal Care and Use Committee (IACUC) at Case Western Reserve University (CWRU, Cleveland, OH, USA). Female 4-week-old athymic nude mice purchased from the Jackson Laboratory (Bar Harbor, ME, USA) were housed in the Animal Core Facility at CWRU. Anesthetized mice were subcutaneously inoculated in the right flank with 4×10^6 GFP/luciferase-expressing OSCC cells (n=5 per cell line) in 100 μL of a 1:1 mixture of Matrigel HC (Corning) and DPBS. Tumor size was monitored with caliper measurements. After 4 weeks of growth, tumors were sufficiently large for MRI experiments.
MRI experiments were performed with a 3T MRS-3000 system (MR Solutions, Surrey, UK). Tumor-bearing mice were imaged before and at 10, 20, and 30 minutes post-injection of the targeted contrast agent, MT218 (Molecular Theranostics, LLC, Cleveland, OH, USA), at a dose of 0.04 mmol/kg using a T1-weighted fast spin-echo axial sequence with respiratory gating (TR=305 ms, TE=11 ms, FOV=40×40 mm, slice thickness=1 mm, number of slices=15, Nav=2, matrix=256×248). […]
(§2) Images were exported in DICOM format and analyzed using FIJI. Contrast-to-noise ratio (CNR) for each time point was calculated as the difference between the mean tumor intensity and the mean muscle intensity, divided by the standard deviation of noise.

SCC4 tumors = experiment: MRMI of OSCC flank xenografts, SCC4; assay type: in vivo, mice; conditions: gadoteridol 0.10 mmol/kg
Method: as §1
MRI experiments were performed with a 3T MRS-3000 system (MR Solutions, Surrey, UK). […] This protocol was repeated on the same mice 2 days later using the untargeted clinical agent gadoteridol at the clinical dose of 0.10 mmol/kg.
as §2

Relaxivity measurements = assay type: physicochemical; conditions: at 3 T, DPBS buffer
Method: The T1 and T2 values of MT218 and Gd(HP-DO3A) solutions were determined using a 3T MRS 3000 scanner (MR Solutions, Guildford, UK). Solutions of MT218 were prepared at concentrations of 0, 0.25, 0.5, 1, and 2 mM in DPBS buffer (Gibco, Gaithersburg, MD). T1 values were measured using an inversion recovery-fast low angle shot (IR-FLASH) sequence (i=10 ms, TE=4 ms, FA=8°, echoes/frames=128, FOV=40 mm×40 mm, slice thickness =2 mm, number of averages=1, time delay=4000 ms, sample period=200, matrix=256×128). T2 values were obtained using a multi-echo multi-slice (MEMS) sequence (TE=15 ms, […], echoes=10, FOV: 40 mm×40 mm, slice thickness=1 mm, number of averages=1, matrix=256×192). The r1 and r2 relaxivities were calculated from the slopes of 1/T1 and 1/T2 vs. Gd concentration plots, respectively.

[1] = tested on: BxPC3-GFP-Luc intrapancreatic tumors; experiment: MRMI of BxPC3-GFP-Luc intrapancreatic tumors; assay type: in vivo, mice; conditions: 0.1 mmol/kg, 10 min post-injection
Method: (§3) For flank xenograft models, 4×10^6 Capan-1 cells suspended in 100 μL of a 6 mg/mL Matrigel (Corning, Corning, NY) solution was injected subcutaneously into the flank of eight-week-old female nu/nu mice. The tumor bearing mice were imaged after tumor volumes exceeded 300 mm^3. For orthotopic intrapancreatic models, the pancreas of four-week-old female nu/nu mice were surgically exposed and 1×10^6 BxPC3-GFP-Luc or PANC-1-GFP-Luc cells suspended in 100 μL of an Matrigel solution (6 mg/mL) was injected into the pancreatic tissue. Prior to imaging, growth of tumor was verified by bioluminescence imaging with intraperitoneal injection of d-luciferin on IVIS Spectrum system (Perkin Elmer, Waltham, MA).
(§4) Mice bearing intrapancreatic tumors were anesthetized and a tail vein catheter was inserted. Image acquisition was performed on a MR Solutions 3T MRS 3000 scanner with a mouse radiofrequency coil. Axial images were obtained using a Fast Spin Echo (FSE) MRI sequence (305 ms TR, 11 ms TE, 90° F.A, 4 cm×4 cm FOV, 1 mm slice thickness, 10 slices, echo train length=4, echo spacing=11 ms, 4 averages, 256×256 matrix, […] cm/pixel resolution) with respiratory gating. Images were acquired before contrast and at different time points after contrast injection at a dose of 0.1 mmol/kg (100 μL). For competitive binding experiments, a 5:1 molar ratio of free ZD2 peptide to MT218 was injected in mice bearing intrapancreatic BxPC3 tumor xenografts (n=3) at a dose of 0.1 mmol MT218/kg (100 μL). Images obtained on the MR Solutions 3T scanner were normalized using the Surscalereader.exe (MR Solutions, Guildford, UK) program supplied.
(§5) Image files were exported and analyzed in Horus software. ROIs were drawn in the tumor, liver, kidney, and muscle. Muscle ROIs were taken from muscle, with other structures (liver, kidney, tumor) identified after comparison with published images and comparison with anatomical landmarks or bioluminescent imaging. Size of ROIs drawn for image analysis are summarized in Supplemental Table S1. The contrast-to-noise ratio of the tumor (CNR) was calculated using the following equation, where σ_noise is the standard deviation of intensities from an ROI drawn outside of the mouse body:
Image contrast was reported as fold enhancement of contrast to noise ratio of postcontrast images over precontrast images using Fold Enhancement=CNRpost/CNRpre. Statistical analysis of CNR was performed in Minitab Express (Minitab Inc, State College, PA). One-way ANOVA with Fisher Individual Tests for Differences of Means post-hoc testing was performed to determine statistical significance between greater than two means (p<0.05). Student's T test was used to determine statistical significance between two means (p<0.05).

HSC3 tumors = experiment: MRMI of OSCC flank xenografts, HSC3; assay type: in vivo, mice; conditions: gadoteridol 0.10 mmol/kg
Method: as §1
MRI experiments were performed with a 3T MRS-3000 system (MR Solutions, Surrey, UK). Tumor-bearing mice were imaged before and at 10, 20, […] spin-echo axial sequence with respiratory gating (TR=305 ms, TE=11 ms, FOV=40×40 mm, slice thickness=1 mm, number of slices=15, Nav=2, matrix=256×248). This protocol was repeated on the same mice 2 days later using the untargeted clinical agent gadoteridol at the clinical dose of 0.10 mmol/kg.
as §2

[2] = tested on: PANC-1-GFP-Luc intrapancreatic tumor xenografts; experiment: MRMI of PANC-1-GFP-Luc intrapancreatic tumor xenografts; assay type: in vivo, mice; conditions: 0.1 mmol/kg, 10 min postinjection
Method: as §3, §4
Image files were exported and analyzed in Horus software. ROIs were drawn in the tumor, liver, kidney, and muscle. […] The contrast-to-noise ratio of the tumor (CNR) was calculated using the following equation, where σ_noise is the standard deviation of intensities from an ROI drawn outside of the mouse body: […]

[3] = tested on: Capan-1 flank tumor xenografts; experiment: MRMI of Capan-1 flank tumor xenografts; assay type: in vivo, mice; conditions: 0.1 mmol/kg; MT218 at 15 minutes post-injection, maintained at least 35 minutes; Gd(HP-DO3A) for the duration of the experiment
Method: as §3
Flank tumor-bearing mice were anesthetized and a tail vein catheter inserted. MR image acquisition was performed on a 7T Biospin (Bruker, Billerica, MA) preclinical small animal scanner with a volume radiofrequency coil. Axial images were obtained using a multi-spin multi-echo (MSME) MRI sequence (500 ms TR, 8.1 ms TE, 900 FA, 4.50 cm×4.50 cm FOV, 1.50 mm slice thickness, 16 slices, 2 averages, 200×200 matrix, 0.0225×0.0225 cm/pixel resolution). Contrast agents were injected at a dose of 0.1 mmol/kg (100 μL) via the tail vein catheter, followed by a saline flush. Images of the tumors were acquired before contrast and at various time points after contrast administration. Gd(HP-DO3A) was used as a control.
as §5, with “body: […]” for “body:”

DLD-1 cells = conditions: cited from earlier work
DLD1-DR cells = DLD1-DR cells developed with resistance to 5′-FU; cited from earlier work
[4] = target: extradomain-B fibronectin (EDB-FN) (human) (UniProt P02751); experiment: cell-based or functional assay
Sequence of extradomain-B fibronectin (EDB-FN) (human) (P02751 32-2477): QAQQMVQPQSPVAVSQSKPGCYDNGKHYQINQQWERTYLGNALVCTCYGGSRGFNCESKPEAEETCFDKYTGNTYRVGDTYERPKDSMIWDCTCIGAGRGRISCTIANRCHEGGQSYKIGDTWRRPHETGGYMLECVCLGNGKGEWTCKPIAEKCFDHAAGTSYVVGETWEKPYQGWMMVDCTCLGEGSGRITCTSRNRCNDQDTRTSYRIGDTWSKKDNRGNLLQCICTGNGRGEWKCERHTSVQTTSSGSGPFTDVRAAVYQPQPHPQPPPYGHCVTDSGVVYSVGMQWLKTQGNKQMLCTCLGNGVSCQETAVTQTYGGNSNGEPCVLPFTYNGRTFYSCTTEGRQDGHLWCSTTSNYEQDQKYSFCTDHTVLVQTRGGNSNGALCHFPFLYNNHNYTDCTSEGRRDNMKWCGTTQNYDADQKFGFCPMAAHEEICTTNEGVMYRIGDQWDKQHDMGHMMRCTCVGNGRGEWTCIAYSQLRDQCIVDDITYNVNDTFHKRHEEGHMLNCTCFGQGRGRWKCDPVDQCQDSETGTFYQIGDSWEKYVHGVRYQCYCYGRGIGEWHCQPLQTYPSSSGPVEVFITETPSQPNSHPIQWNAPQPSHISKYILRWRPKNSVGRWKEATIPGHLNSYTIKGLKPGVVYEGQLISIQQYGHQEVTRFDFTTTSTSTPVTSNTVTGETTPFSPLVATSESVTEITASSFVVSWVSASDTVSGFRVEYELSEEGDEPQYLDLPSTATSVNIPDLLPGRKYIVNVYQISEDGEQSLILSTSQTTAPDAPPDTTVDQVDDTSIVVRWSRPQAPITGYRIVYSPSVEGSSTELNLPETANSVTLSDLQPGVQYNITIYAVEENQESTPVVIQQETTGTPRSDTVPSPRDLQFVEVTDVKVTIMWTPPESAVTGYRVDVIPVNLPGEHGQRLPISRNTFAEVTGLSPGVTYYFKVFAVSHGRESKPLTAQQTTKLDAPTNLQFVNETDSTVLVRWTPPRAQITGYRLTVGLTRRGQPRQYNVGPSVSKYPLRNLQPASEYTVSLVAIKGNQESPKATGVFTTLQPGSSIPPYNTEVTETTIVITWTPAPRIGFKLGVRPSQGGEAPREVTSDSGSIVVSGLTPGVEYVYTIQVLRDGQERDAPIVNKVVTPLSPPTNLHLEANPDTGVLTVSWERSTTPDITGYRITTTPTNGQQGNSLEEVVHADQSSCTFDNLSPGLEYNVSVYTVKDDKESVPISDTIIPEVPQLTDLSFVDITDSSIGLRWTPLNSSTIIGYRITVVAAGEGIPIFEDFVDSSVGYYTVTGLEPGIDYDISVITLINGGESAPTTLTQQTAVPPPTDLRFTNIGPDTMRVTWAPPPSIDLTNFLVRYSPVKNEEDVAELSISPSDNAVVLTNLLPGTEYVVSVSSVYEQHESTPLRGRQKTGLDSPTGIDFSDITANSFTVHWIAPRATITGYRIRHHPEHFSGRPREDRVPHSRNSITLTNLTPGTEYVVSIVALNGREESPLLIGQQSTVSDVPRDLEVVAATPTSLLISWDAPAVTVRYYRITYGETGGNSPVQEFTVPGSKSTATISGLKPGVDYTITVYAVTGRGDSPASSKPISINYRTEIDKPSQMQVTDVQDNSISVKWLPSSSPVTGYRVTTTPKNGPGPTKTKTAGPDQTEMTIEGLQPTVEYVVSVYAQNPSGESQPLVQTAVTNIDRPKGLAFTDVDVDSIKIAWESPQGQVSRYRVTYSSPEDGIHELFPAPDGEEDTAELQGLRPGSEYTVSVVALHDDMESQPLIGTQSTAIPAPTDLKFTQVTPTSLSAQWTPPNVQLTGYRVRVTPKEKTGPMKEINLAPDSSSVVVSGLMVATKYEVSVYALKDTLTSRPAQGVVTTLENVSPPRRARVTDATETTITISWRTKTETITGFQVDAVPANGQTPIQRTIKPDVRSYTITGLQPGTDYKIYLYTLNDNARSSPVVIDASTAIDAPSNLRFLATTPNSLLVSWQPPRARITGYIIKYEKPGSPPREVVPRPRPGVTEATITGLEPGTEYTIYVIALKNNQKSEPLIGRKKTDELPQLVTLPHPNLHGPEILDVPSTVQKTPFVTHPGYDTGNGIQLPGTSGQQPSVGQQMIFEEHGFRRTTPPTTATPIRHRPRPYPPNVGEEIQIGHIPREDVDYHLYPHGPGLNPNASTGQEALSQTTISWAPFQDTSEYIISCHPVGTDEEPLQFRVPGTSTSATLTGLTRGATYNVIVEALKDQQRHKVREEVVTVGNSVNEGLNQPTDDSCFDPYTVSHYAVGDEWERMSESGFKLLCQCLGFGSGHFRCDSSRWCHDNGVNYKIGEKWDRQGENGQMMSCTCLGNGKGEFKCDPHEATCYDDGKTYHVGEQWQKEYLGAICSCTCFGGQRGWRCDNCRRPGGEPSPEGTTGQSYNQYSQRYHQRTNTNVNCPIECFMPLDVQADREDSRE

[5] = target: T1, EDB fragment of FN (expressed in E. coli, labelled with NT-647) (UniProt P02751 1266-1356, limits assumed, labelled with amine-reactive dye NT-647); experiment: microscale thermophoresis, NT-647-labelled EDB fragment at fixed concentration, MT218 titrated, 25 °C
T1 construct: domain: EDB fragment of FN
T1 sequence (P02751 1266-1356 limits assumed): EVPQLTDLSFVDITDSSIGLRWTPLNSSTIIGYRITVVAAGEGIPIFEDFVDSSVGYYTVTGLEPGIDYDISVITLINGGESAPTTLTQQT
Method: (§6) The binding affinity of MT218 was determined with microscale thermophoresis (MST) using a Nanotemper™ Monolith NT.115 instrument (NanoTemper Technologies, Munich, Germany). The EDB fragment of FN was expressed in E. coli, purified, and labelled with amine-reactive dye NT-647. MT218 was dissolved into assay buffer (50 mM PBS w/0.05% Tween-20). This solution was further diluted using assay buffer to give a series of MT218 working solutions. Each MT218 working solution was then mixed with a fixed concentration of fluorescently labeled EDB fragment. The mixtures of MT218 and EDB were then loaded into standard capillaries, and MST measurements were performed at 25° C. using 20-80% light-emitting diode power and 40% infrared-laser power at varying concentrations of MT218.
MT218 is a small molecular conjugate of ZD2 peptide to a macrocyclic clinical MRI contrast agent Gd(HP-DO3A). […] The T₁ and T₂ relaxivities of MT218 were measured to be 6.07±1.13 s⁻¹ mM⁻¹ and 8.20±0.18 s⁻¹ mM⁻¹, respectively, at 3 T. T₁ and T₂ relaxivities of Gd(HP-DO3A) were measured to be 3.20±0.96 s⁻¹ mM⁻¹ and 5.12±0.18 s⁻¹ mM⁻¹, respectively, at 3 T.

[6] = target: T1, EDB fragment of FN (expressed in E. …); experiment: microscale thermophoresis, MT218 titrated against a fixed concentration of NT-647-labelled EDB fragment, 25 °C [panel B]
Method: as §6

Question: Which results are given for “Gd(HP-DO3A) [gadoteridol, reference compound]”?
Answer: average maximum enhancement (CNR) (CAL27 tumors): 2.27±0.18; average maximum enhancement (CNR) (SCC4 tumors): 2.57±0.28; T1 relaxivity (Relaxivity measurements): 3.20 ± 0.96 s⁻¹ mM⁻¹; T2 relaxivity (Relaxivity measurements): 5.12 ± 0.18 s⁻¹ mM⁻¹; tumor CNR increase [1]: approximately 2.5 fold; average maximum enhancement (CNR) (HSC3 tumors): 2.18±0.07; intratumoral CNR increase [2]: 2.35 fold; increase of contrast to noise ratio (CNR) [3]: 1.77 fold

Question: With `O=c1[nH]cc(F)c(=O)[nH]1` [5′-FU, 5′-fluorouracil] as the molecule, how does the IC50 (DLD-1 cells) read?
Answer: Its IC50 is 2.5 µM.

Question: And the IC50 (DLD1-DR cells)?
Answer: Its IC50 is 211 µM.

B1: ZD2-N3-Gd(HP-DO3A) (MT218) (peptide)
peptide: TVRTSAD
modifications: also: conjugated to Gd(HP-DO3A) by click reaction of alkynyl-ZD2 with N3-Gd(HP-DO3A), residue of attachment not given here, Gd complex
notes: Small peptide conjugate of the clinical contrast agent gadoteridol; also called EDB-FN-targeted contrast agent; ZD2 targeted MRI contrast agent
Question: What does the source list for B1?
Answer: tumor CNR increase (MRMI) in the BxPC3-GFP-Luc intrapancreatic model, MT218 co-injected with an excess of free ZD2 peptide [4]: 2.5 fold; tumor CNR increase (MRMI) in the BxPC3-GFP-Luc intrapancreatic model, MT218 without the free peptide [4]: 4.5 fold; Kd [5]: 3.2 µM; EC50 (read off the curve) [6]: ~3 µM
